Measurements taken from publication PMC7604414, “Favipiravir at high doses has potent antiviral activity in SARS-CoV-2−infected hamsters, whereas hydroxychloroquine lacks activity” (Proceedings of the National Academy of Sciences of the …, 2020).

What was measured:
SARS-CoV-2 [1] = tested on: SARS-CoV-2; design: species or system Syrian hamsters; settings: hamster, in vivo
SARS-CoV-2 [2] = tested on: SARS-CoV-2; design: method as in PMID 33741945; settings: upon favipiravir treatment; cited from earlier work

Compound: NC(=O)c1nc(F)c[nH]c1=O [favipiravir]
- increase in mean virus variants vs untreated hamsters (SARS-CoV-2 [1]): 3.2 fold
- increase of mean number of mutations in the viral RNA, factor (SARS-CoV-2 [2]): more than three
